Active and inactive are the calls of the source. The rule behind the calls is not given here.
Key:
Mus musculus [1] = assay: Antiinflammatory activity in carrageenan-induced thrombosis in male BALB/c mouse model assessed as reduction in IL-6 level administered as oral dose by ELISA method; assay type: functional, organism-based; conditions: dose 10-30 mg/kg
Plasma [2] = assay: Anticoagulant activity in human plasma assessed as prolongation of […] time at 300 uM incubated for 2 mins by PT reagent based assay; assay type: functional, cell-free
Mus musculus [3] = assay: Antiinflammatory activity in carrageenan-induced thrombosis in male BALB/c mouse model assessed as reduction in IL-1 beta level administered as oral dose by ELISA method; assay type: functional, organism-based; conditions: dose 10-30 mg/kg
Coagulation factor XII [4] = target: T1, Coagulation factor XII (Homo sapiens, UniProt P00748); assay: Inhibition of FXIIa (unknown origin) using H-D-Pro-Phe-Arg-pNA as substrate incubated for 20 mins followed by substrate addition by spectrophotometric analysis
T1 sequence (P00748 whole entry): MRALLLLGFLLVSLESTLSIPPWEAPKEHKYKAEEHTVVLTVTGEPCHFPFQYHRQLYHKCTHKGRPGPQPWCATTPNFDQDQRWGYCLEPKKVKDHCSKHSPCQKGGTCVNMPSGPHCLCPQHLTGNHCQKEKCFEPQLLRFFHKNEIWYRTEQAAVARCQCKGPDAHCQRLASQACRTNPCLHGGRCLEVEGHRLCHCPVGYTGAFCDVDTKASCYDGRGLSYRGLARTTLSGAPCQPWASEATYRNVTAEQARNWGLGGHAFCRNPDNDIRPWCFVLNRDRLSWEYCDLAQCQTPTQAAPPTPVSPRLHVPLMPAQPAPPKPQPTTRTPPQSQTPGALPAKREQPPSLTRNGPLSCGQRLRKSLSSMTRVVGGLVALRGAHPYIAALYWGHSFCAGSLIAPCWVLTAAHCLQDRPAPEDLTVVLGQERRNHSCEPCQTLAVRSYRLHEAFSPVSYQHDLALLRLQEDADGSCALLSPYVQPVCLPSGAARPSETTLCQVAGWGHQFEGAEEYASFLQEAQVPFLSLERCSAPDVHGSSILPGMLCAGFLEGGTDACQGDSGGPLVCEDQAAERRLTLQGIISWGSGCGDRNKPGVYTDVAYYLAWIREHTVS

Plasma [5] = assay: Anticoagulant activity in non-activated human plasma assessed as prolongation of activated partial thromboplastin time measured after 260 mins; assay type: functional; conditions: 4.333 h
[6] = Selectivity index, ratio of IC50 for trypsin (unknown origin) to IC50 for FXIIa (unknown origin)
Smooth muscle cell = assay: Ant-icalcification activity in human aortic Smooth muscle cell at 10 uM measured after 14 days with replacement of fresh medium for every 2 to 3 days by Alizarin red S staining based analysis; assay type: functional; conditions: time 14.0 day
Mus musculus [7] = assay: Antiinflammatory activity in carrageenan-induced thrombosis in male BALB/c mouse model assessed as reduction in IL-6 level at 10 to 30 mg/kg, po by ELISA method; assay type: functional, organism-based; conditions: dose 10-30 mg/kg
[8] = Toxicity in BALB/c mouse assessed as effect on kidney at 60 to 100 mg/kg, po measured after 14 days by H and E staining based analysis; assay type: organism-based; conditions: in vivo, 336 h, dose 60-100 mg/kg, time 14 day
[9] = target: T2, Coagulation factor XII (Homo sapiens) (UniProt P00748); assay: Covalent inhibition of FXIIa (unknown origin) at 20 to 40 nM measured after 10 mins; conditions: dose 20-40 nM
T2 sequence (whole entry): T1 sequence (P00748 whole entry)

[10] = target: T2, Coagulation factor XII (Homo sapiens); assay: Binding affinity to FXIIa (unknown origin) assessed as Kinact/Ki using H-D-Pro-Phe-Arg-pNA.2HCl as substrate by spectrophotometric analysis
[11] = Oral bioavailability in BALB/c mouse at 5 mg/kg measured upto 24 hrs by LC-MS/MS analysis; assay type: ADME, organism-based; conditions: in vivo
[12] = Toxicity in BALB/c mouse assessed as effect on CREA level in serum at 60 to 100 mg/kg, po measured after 14 days; assay type: organism-based; conditions: in vivo, 336 h, dose 60-100 mg/kg, time 14 day
[13] = Toxicity in BALB/c mouse assessed as effect on UREA level in serum at 60 to 100 mg/kg, po measured after 14 days; assay type: organism-based; conditions: in vivo, 336 h, dose 60-100 mg/kg, time 14 day
[14] = MRT (0 to infinity) in BALB/c mouse at 1 mg/kg, iv measured upto 24 hrs by LC-MS/MS analysis; assay type: ADME, organism-based; conditions: in vivo
[15] = Toxicity in BALB/c mouse assessed as effect on UA level in serum at 60 to 100 mg/kg, po measured after 14 days; assay type: organism-based; conditions: in vivo, 336 h, dose 60-100 mg/kg, time 14 day
[16] = Toxicity in BALB/c mouse assessed as effect on liver at 60 to 100 mg/kg, po measured after 14 days by H and E staining based analysis; assay type: organism-based; conditions: in vivo, 336 h, dose 60-100 mg/kg, time 14 day
[17] = Toxicity in BALB/c mouse assessed as effect on AST level in serum at 60 to 100 mg/kg, po measured after 14 days; assay type: organism-based; conditions: in vivo, 336 h, dose 60-100 mg/kg, time 14 day
[18] = AUC (0 to infinity) in BALB/c mouse at 5 mg/kg, po measured upto 24 hrs by LC-MS/MS analysis; assay type: ADME, organism-based; conditions: in vivo
[19] = Toxicity in BALB/c mouse assessed as prolongation of bleeding time at 60 mg/kg, po measured after 90 mins; assay type: organism-based; conditions: in vivo, 1.5 h
[20] = Half life in BALB/c mouse at 5 mg/kg, po measured upto 24 hrs by LC-MS/MS analysis; assay type: ADME, organism-based; conditions: in vivo
[21] = AUC (0 to infinity) in BALB/c mouse at 1 mg/kg, iv measured upto 24 hrs by LC-MS/MS analysis; assay type: ADME, organism-based; conditions: in vivo
[22] = Apparent volume of distribution in BALB/c mouse at 1 mg/kg, iv measured upto 24 hrs by LC-MS/MS analysis; assay type: ADME, organism-based; conditions: in vivo, read-out: Vz
[23] = target: T2, Coagulation factor XII (Homo sapiens); assay: Inhibition of FXIIa (unknown origin) using H-D-Pro-Phe-Arg-pNA as substrate preincubated for 20 mins followed by 100 fold dilution upto 120 mins then substrate addition for 60 mins by jump dilution assay; conditions: time <= 200.0 min
[24] = Toxicity in BALB/c mouse assessed as effect on ALP level in serum at 60 to 100 mg/kg, po measured after 14 days; assay type: organism-based; conditions: in vivo, 336 h, dose 60-100 mg/kg, time 14 day
[25] = Toxicity in BALB/c mouse assessed as effect on lung at 60 to 100 mg/kg, po measured after 14 days by H and E staining based analysis; assay type: organism-based; conditions: in vivo, 336 h, dose 60-100 mg/kg, time 14 day
[26] = Toxicity in BALB/c mouse assessed as effect on ALT level in serum at 60 to 100 mg/kg, po measured after 14 days; assay type: organism-based; conditions: in vivo, 336 h, dose 60-100 mg/kg, time 14 day
[27] = Tmax in BALB/c mouse at 5 mg/kg, po measured upto 24 hrs by LC-MS/MS analysis; assay type: ADME, organism-based; conditions: in vivo
Coagulation factor XII [28] = target: T1, Coagulation factor XII; assay: Binding affinity to FXIIa (unknown origin) assessed as inhibition constant using H-D-Pro-Phe-Arg-pNA.2HCl as substrate by spectrophotometric analysis
[29] = MRT(0 to infinity) in BALB/c mouse at 5 mg/kg, po measured upto 24 hrs by LC-MS/MS analysis; assay type: ADME, organism-based; conditions: in vivo
[30] = Clearance in BALB/c mouse at 1 mg/kg, iv measured upto 24 hrs by LC-MS/MS analysis; assay type: ADME, organism-based; conditions: in vivo
[31] = Toxicity in BALB/c mouse assessed as effect on HBDH level in serum at 60 to 100 mg/kg, po measured after 14 days; assay type: organism-based; conditions: in vivo, 336 h, dose 60-100 mg/kg, time 14 day

With `CC(C)N1CCN(c2ccc(C(=O)n3nc(-c4ccccn4)nc3N)c3ccccc23)CC1` the Activity (Mus musculus [1]) was “Dose-Dependent Effect”, the Activity (Plasma [2]) was “inactive” and the Activity (Mus musculus [3]) was “Dose-Dependent Effect”. For the same compound, the IC50 (Coagulation factor XII [4]) was 37 nM, the EC1.5 (Plasma [5]) was 14 µM and the Ratio IC50 [6] was > 670. For the same compound, the Activity (Smooth muscle cell) was “Active”.
With `CC(C)N1CCCN(c2ccc(C(=O)n3nc(-c4ccccn4)nc3N)c3ccccc23)CC1` the Activity (Mus musculus [7]) was “Active”, the Activity [8] was “Non-Toxic” and the inhibition [9] was “Active”. The K [10] was 2.37 10^6/M/min, the bioavailability [11] was 28.2% and the Activity [12] was “Non-Toxic”. For the same compound, the Activity [13] was “Non-Toxic”, the MRT inf [14] was 1.58 h and the Activity (Plasma [2]) was “inactive”. The Activity [15] was “Non-Toxic”, the Activity [16] was “Non-Toxic” and the Activity [17] was “Non-Toxic”. For the same compound, the AUC(0-inf) [18] was 17.8 ng·h/mL, the Activity [19] was “Non-Toxic” and the half-life [20] was 1.71 h. For the same compound, the AUC(0-inf) [21] was 13.3 ng·h/mL, the Vd [22] was 105 L/kg and the inhibition [23] was “inactive”. The Activity [24] was “Non-Toxic”, the EC1.5 (Plasma [5]) was 9 µM and the Activity [25] was “Non-Toxic”. For the same compound, the Ratio IC50 [6] was > 1190, the Activity [26] was “Non-Toxic” and the Tmax [27] was 1 h. The Ki (Coagulation factor XII [28]) was 11.4 nM, the MRT inf [29] was 1.6 h and the CL [30] was 1270 mL/min/kg. For the same compound, the Activity [31] was “Non-Toxic”.
